{"source": "paper PMC9925730", "about": "“Controlled sequential in situ self-assembly and disassembly of a fluorogenic cisplatin prodrug for cancer theranostics” (Nature Communications, 2023)", "key": {"HeLa cells": {"system": "HeLa cells", "assay": "Distribution of Pt element in subcellular organelles (ICP-OES)", "assay_type": "cell-based", "procedure": "Supplementary Table 3. Comparison of the distribution of Pt element in different subcellular organelles between P-CyPt and CDDP. a Subcellular Amount of Pt distributed in a Percentage of Pt distributed in organelles single cell’s organelle (fmol) b a single cell’s organelle (%) c […]\na HeLa cells were incubated with P-CyPt or CDDP (10 μM) for 1 h. After that, the cells were washed with PBS for three times, replaced with blank medium and cultured for another 24 h. The cells were trypsinized, collected, and the cell numbers were counted.\nThe cell pellets were dispersed in PBS buffer, lysed via ultrasound sonication, and centrifuged at different speed to separate membrane, nucleus, lysosome together with mitochondria, and cytoplasm. The concentration of Pt element in each organelle fraction was then measured by ICP-OES. Values denote mean ± s.d. (n = 3 independent […]\nb The amount of Pt in a single HeLa cell’s subcellular organelle was calculated by dividing the total amount of Pt element in different subcellular organelles to the cell […]\nc Percentage of Pt distributed in a single HeLa cell’s subcellular organelles was calculated by dividing the amount of Pt in a single cell’s subcellular organelles by the amount of Pt in a single cell (sum of organelles). […]\nFor Pt distribution analysis, the cells were treated with P-CyPt (10 μM) or CDDP (10 μM) for 1 h, and then washed with PBS for three times, followed by incubation with fresh medium for another 24 h. After that, cells were washed gently with 2 mL PBS once. The cells were trypsinized, centrifuged and counted. The cell lysates were separated according to a reported fragmentation procedure to obtained different cell fractions, including N (nuclei), M (plasma membrane), L (lysosomes and mitochondria) and C (cytosol). The Cells and different cell fractions were digested with concentrated HNO3 (65~70%) and HCl (36~38%) at 90 °C for 24 h. The solution was diluted to 5 mL 2% HNO3 and 5% HCl solution, and the concentration of Pt element was measured by ICP-OES, which was further applied to calculate the amount of Pt in cells and subcellular organelles. […]\nThe count number for each flow cytometry analysis was ~5000 to 10000, and the data was processed using FlowJo software.\nEvaluation of the ability to break DNA double strand. Supercoiled pBR322 plasmi d DNA (20 ng μL–1) was incubated with blank Tris buffer (i) or Tris buffer containing GSH (2 mM, ii), Tris buffer containing CDDP (100 μM, iii), Tris buffer containing GSH (2 mM) and CDDP (100 μM, iv), Tris buffer containing P-CyPt (100 μM, v), Tris buffer containing P-CyPt (100 μM) and GSH (2 mM, vi), Tris buffer containing P-CyPt (100 μM) and ALP (500 U/L, vii), and Tris buffer containing P-CyPt (100 μM), ALP (500 U/L) and GSH (2 mM, viii) or incubated with P-CyPt ((0, 1, 2, 5, 10, 20, 50 and 100 μM, from i-viii) respectively in the presence of ALP (500 U/L), followed by incubation with GSH (2 mM) in Tris buffer) at 37 °C for 16 h. Then, the reactions (10 μL) were quenched by loading buffer (2 μL, including 30 mM EDTA, 36% glycerol, 0.05% xylene cyanol FF, and 0.05% bromophenol blue). The resulting solutions and 1kb-I DNA ladder (GsDL10001) were loaded into native agarose gel (1%) and subjected to electrophoresis in a TAE buffer (40 mM Tris acetate, 1 mM EDTA). The"}, "[1]": {"assay": "NIR FL, PA and absorption signals of Pt^IVNPs in solution in response to GSH", "settings": "P-CyPt 10 μM", "procedure": "To monitor the NIR FL and PA imaging signals of P-CyPt in response to ALP, P-CyPt (10 μM) in Tris buffer (1 mL) was incubated with ALP (100 U/L) at 37 °C for 0, 5, 10, 15, 20, and 30 min. To monitor the NIR FL and PA imaging signals of Pt^IVNPs in response to GSH, P-CyPt (10 μM) in Tris buffer (1 mL) was first incubated with ALP (100 U/L) at 37 °C for 30 min and then incubated with 10 mM GSH at 37 °C for another 10, 20, 30, 40, 50, and 60 min. The NIR FL spectra of these solutions at each time point were acquired on a HORIBA Jobin Yvon Fluoromax-4 fluorescence spectrometer, with excitation at 680 nm. For PA imaging, the incubation solutions at each time point were loaded into a fine bore polythene tube ([…], 1.27 mm OD). The tubes were then sealed and immersed in water. The PA images at both 700 and 750 nm were acquired on the Vevo 2100 LAZR system (FUJIFILM VisualSonics)."}, "[2]": {"settings": "Cytoplasm (C), individual samples"}, "[3]": {"settings": "Cytoplasm (C), mean of 3 samples"}, "[4]": {"settings": "HeLa, 10 μM 1 h, then blank medium 24 h"}, "[5]": {"settings": "Membrane(M), individual samples"}, "[6]": {"settings": "Mito&Lyso (L), individual samples"}, "[7]": {"settings": "Mito&Lyso (L), mean of 3 samples"}, "[8]": {"settings": "Nucleus (N), individual samples"}, "[9]": {"settings": "ALP 30 min then GSH 10 mM 10 min (time 40)"}, "[10]": {"settings": "ALP 30 min then GSH 10 mM 20 min (time 50)"}, "[11]": {"settings": "ALP 30 min then GSH 10 mM 30 min (time 60)"}, "[12]": {"settings": "ALP 30 min then GSH 10 mM 40 min (time 70)"}, "[13]": {"settings": "ALP 30 min then GSH 10 mM 50 min (time 80)"}, "[14]": {"settings": "ALP 30 min then GSH 10 mM 60 min (time 90)"}}, "note": "Several values for one entry are separate records, joined by “and”; a condition that tells them apart may be missing. Equal entries are not always repeated."}
{"compound": "CC1(C)C(/C=C/C2=C3Oc4cc(OP(=O)(O)O)c(Cl)cc4C=C3CCC2)=[N+](CCCNC(=O)[C@@H](Cc2ccccc2)NC(=O)[C@@H](Cc2ccccc2)NC(=O)CCC(=O)[O][Pt]([NH2])([NH2])([OH])([Cl])[Cl])c2ccccc21", "note": "[P-CyPt]", "values": [{"measurement": "Amount of Pt in subcellular fraction", "setting": "HeLa cells; [2]", "result": "10.4601 fmol and 9.6958 fmol and 8.113 fmol"}, {"measurement": "Distribution of Pt in subcellular fraction", "setting": "HeLa cells; [2]", "result": "43.0958% and 39.9467% and 33.4263%"}, {"measurement": "Amount of Pt in subcellular fraction", "setting": "HeLa cells; [3]", "result": 9.42, "unit": "fmol"}, {"measurement": "Distribution of Pt in subcellular fraction", "setting": "HeLa cells; [3]", "result": 38.82, "unit": "%"}, {"measurement": "Amount of Pt distributed in a single cell's organelle: Cytoplasm", "setting": "HeLa cells; [4]", "result": "9.42 ± 1.20", "unit": "fmol"}, {"measurement": "Amount of Pt distributed in a single cell's organelle: Lysosome & Mitochondria", "setting": "HeLa cells; [4]", "result": "6.34 ± 0.81", "unit": "fmol"}, {"measurement": "Amount of Pt distributed in a single cell's organelle: Membrane", "setting": "HeLa cells; [4]", "result": "1.46 ± 0.19", "unit": "fmol"}, {"measurement": "Amount of Pt distributed in a single cell's organelle: Nucleus", "setting": "HeLa cells; [4]", "result": "7.05 ± 0.90", "unit": "fmol"}, {"measurement": "Percentage of Pt distributed in a single cell's organelle: Cytoplasm (cytosol)", "setting": "HeLa cells; [4]", "result": 38.82, "unit": "%"}, {"measurement": "Percentage of Pt distributed in a single cell's organelle: Lysosome & Mitochondria", "setting": "HeLa cells; [4]", "result": "26.11% and ~ 26.11%"}, {"measurement": "Percentage of Pt distributed in a single cell's organelle: Membrane", "setting": "HeLa cells; [4]", "result": 6.02, "unit": "%"}, {"measurement": "Percentage of Pt distributed in a single cell's organelle: Nucleus", "setting": "HeLa cells; [4]", "result": "29.05% and ~ 29.05%"}, {"measurement": "Amount of Pt in subcellular fraction", "setting": "HeLa cells; [5]", "result": "0.7699 fmol and 1.266 fmol and 2.345 fmol"}, {"measurement": "Distribution of Pt in subcellular fraction", "setting": "HeLa cells; [5]", "result": "3.1718% and 5.2172% and 9.6606%"}, {"measurement": "Amount of Pt in subcellular fraction", "setting": "HeLa cells; Membrane(M), mean of 3 samples", "result": 1.46, "unit": "fmol"}, {"measurement": "Distribution of Pt in subcellular fraction", "setting": "HeLa cells; Membrane(M), mean of 3 samples", "result": 6.02, "unit": "%"}, {"measurement": "Amount of Pt in subcellular fraction", "setting": "HeLa cells; [6]", "result": "6.19 fmol and 6.277 fmol and 6.546 fmol"}, {"measurement": "Distribution of Pt in subcellular fraction", "setting": "HeLa cells; [6]", "result": "25.5012% and 25.8599% and 26.9676%"}, {"measurement": "Amount of Pt in subcellular fraction", "setting": "HeLa cells; [7]", "result": 6.34, "unit": "fmol"}, {"measurement": "Distribution of Pt in subcellular fraction", "setting": "HeLa cells; [7]", "result": 26.11, "unit": "%"}, {"measurement": "Amount of Pt in subcellular fraction", "setting": "HeLa cells; [8]", "result": "6.061 fmol and 7.285 fmol and 7.806 fmol"}, {"measurement": "Distribution of Pt in subcellular fraction", "setting": "HeLa cells; [8]", "result": "24.9722% and 30.0159% and 32.1624%"}, {"measurement": "Amount of Pt in subcellular fraction", "setting": "HeLa cells; Nucleus (N), mean of 3 samples", "result": 7.05, "unit": "fmol"}, {"measurement": "Distribution of Pt in subcellular fraction", "setting": "HeLa cells; Nucleus (N), mean of 3 samples", "result": 29.05, "unit": "%"}, {"measurement": "normalized Abs. at 700 nm (Fig. 2j)", "setting": "[1]; [9]", "result": 1.037}, {"measurement": "normalized Abs. at 750 nm (Fig. 2j)", "setting": "[1]; [9]", "result": 0.6059}, {"measurement": "normalized FL intensity at 710 nm (Fig. 2k)", "setting": "[1]; [9]", "result": 15.4414}, {"measurement": "normalized PA intensity at 700 nm (Fig. 2l)", "setting": "[1]; [9]", "result": 0.9827}, {"measurement": "normalized PA intensity at 750 nm (Fig. 2l)", "setting": "[1]; [9]", "result": 0.8167}, {"measurement": "normalized Abs. at 700 nm (Fig. 2j)", "setting": "[1]; [10]", "result": 1.054}, {"measurement": "normalized Abs. at 750 nm (Fig. 2j)", "setting": "[1]; [10]", "result": 0.4238}, {"measurement": "normalized FL intensity at 710 nm (Fig. 2k)", "setting": "[1]; [10]", "result": 19.7308}, {"measurement": "normalized PA intensity at 700 nm (Fig. 2l)", "setting": "[1]; [10]", "result": 0.9792}, {"measurement": "normalized PA intensity at 750 nm (Fig. 2l)", "setting": "[1]; [10]", "result": 0.6967}, {"measurement": "normalized Abs. at 700 nm (Fig. 2j)", "setting": "[1]; [11]", "result": 1.062}, {"measurement": "normalized Abs. at 750 nm (Fig. 2j)", "setting": "[1]; [11]", "result": 0.3077}, {"measurement": "normalized FL intensity at 710 nm (Fig. 2k)", "setting": "[1]; [11]", "result": 25.1768}, {"measurement": "normalized PA intensity at 700 nm (Fig. 2l)", "setting": "[1]; [11]", "result": 0.9821}, {"measurement": "normalized PA intensity at 750 nm (Fig. 2l)", "setting": "[1]; [11]", "result": 0.5167}, {"measurement": "normalized Abs. at 700 nm (Fig. 2j)", "setting": "[1]; [12]", "result": 1.0719}, {"measurement": "normalized Abs. at 750 nm (Fig. 2j)", "setting": "[1]; [12]", "result": 0.2002}, {"measurement": "normalized FL intensity at 710 nm (Fig. 2k)", "setting": "[1]; [12]", "result": 29.4155}, {"measurement": "normalized PA intensity at 700 nm (Fig. 2l)", "setting": "[1]; [12]", "result": 0.9744}, {"measurement": "normalized PA intensity at 750 nm (Fig. 2l)", "setting": "[1]; [12]", "result": 0.3617}, {"measurement": "normalized Abs. at 700 nm (Fig. 2j)", "setting": "[1]; [13]", "result": 1.0764}, {"measurement": "normalized Abs. at 750 nm (Fig. 2j)", "setting": "[1]; [13]", "result": 0.1155}, {"measurement": "normalized FL intensity at 710 nm (Fig. 2k)", "setting": "[1]; [13]", "result": 34.4707}, {"measurement": "normalized PA intensity at 700 nm (Fig. 2l)", "setting": "[1]; [13]", "result": 0.9821}, {"measurement": "normalized PA intensity at 750 nm (Fig. 2l)", "setting": "[1]; [13]", "result": 0.2567}, {"measurement": "normalized Abs. at 700 nm (Fig. 2j)", "setting": "[1]; [14]", "result": 1.084}, {"measurement": "normalized Abs. at 750 nm (Fig. 2j)", "setting": "[1]; [14]", "result": 0.09482}, {"measurement": "normalized FL intensity at 710 nm (Fig. 2k)", "setting": "[1]; [14]", "result": 35.3761}, {"measurement": "normalized PA intensity at 700 nm (Fig. 2l)", "setting": "[1]; [14]", "result": 1.001}, {"measurement": "normalized PA intensity at 750 nm (Fig. 2l)", "setting": "[1]; [14]", "result": 0.1807}]}
